Legend:
SIK3 = SIK3 (Homo sapiens (Human), UniProt Q9Y2K2); assay: Percent activity against SIK3 at 1 μM; format: biochemical
[1] = molecular target: ABL1 (F317L)-nonphosphorylated (Homo sapiens (Human), UniProt P00519, F317L); assay: KINOMEscan; format: binding; details: 1 uM
AKT1 = AKT1 (Homo sapiens (Human), UniProt P31749); assay: KINOMEscan; format: binding; details: 1 uM
AURKC = AURKC (Homo sapiens (Human), UniProt Q9UQB9); assay: KINOMEscan; format: binding; details: 1 uM
BIKE = BIKE (Homo sapiens (Human), UniProt Q9NSY1); assay: KINOMEscan; format: binding; details: 1 uM
BMPR1B = BMPR1B (Homo sapiens (Human), UniProt O00238); assay: KINOMEscan; format: binding; details: 1 uM
CAMK2D = CAMK2D (Homo sapiens (Human), UniProt Q13557); assay: KINOMEscan; format: binding; details: 1 uM
CDK5 = CDK5 (Homo sapiens (Human), UniProt Q00535); assay: KINOMEscan; format: binding; details: 1 uM
CDK9 = CDK9 (Homo sapiens (Human), UniProt P50750); assay: KINOMEscan; format: binding; details: 1 uM
CIT = CIT (Homo sapiens (Human), UniProt O14578); assay: KINOMEscan; format: binding; details: 1 uM
CSNK2A1 = CSNK2A1 (Homo sapiens (Human), UniProt P68400); assay: KINOMEscan; format: binding; details: 1 uM
DCAMKL3 = DCAMKL3 (Homo sapiens (Human), UniProt Q9C098); assay: KINOMEscan; format: binding; details: 1 uM
EGFR (T790M) = EGFR (T790M) (Homo sapiens (Human), UniProt P00533, T790M); assay: KINOMEscan; format: binding; details: 1 uM
EPHA5 = EPHA5 (Homo sapiens (Human), UniProt P54756); assay: KINOMEscan; format: binding; details: 1 uM
ERK4 = ERK4 (Homo sapiens (Human), UniProt P31152); assay: KINOMEscan; format: binding; details: 1 uM
FGFR4 = FGFR4 (Homo sapiens (Human), UniProt P22455); assay: KINOMEscan; format: binding; details: 1 uM
HASPIN = HASPIN (Homo sapiens (Human), UniProt Q8TF76); assay: KINOMEscan; format: binding; details: 1 uM
ICK = ICK (Homo sapiens (Human), UniProt Q9UPZ9); assay: KINOMEscan; format: binding; details: 1 uM
[2] = molecular target: JAK2 (JH1domain-catalytic) (Homo sapiens (Human), UniProt O60674); assay: KINOMEscan; format: binding; details: 1 uM
LIMK2 = LIMK2 (Homo sapiens (Human), UniProt P53671); assay: KINOMEscan; format: binding; details: 1 uM
MAP3K15 = MAP3K15 (Homo sapiens (Human), UniProt Q6ZN16); assay: KINOMEscan; format: binding; details: 1 uM
MAP3K3 = MAP3K3 (Homo sapiens (Human), UniProt Q99759); assay: KINOMEscan; format: binding; details: 1 uM
MAP4K3 = MAP4K3 (Homo sapiens (Human), UniProt Q8IVH8); assay: KINOMEscan; format: binding; details: 1 uM
MAP4K4 = MAP4K4 (Homo sapiens (Human), UniProt O95819); assay: KINOMEscan; format: binding; details: 1 uM
MLK1 = MLK1 (Homo sapiens (Human), UniProt P80192); assay: KINOMEscan; format: binding; details: 1 uM
MYLK2 = MYLK2 (Homo sapiens (Human), UniProt Q9H1R3); assay: KINOMEscan; format: binding; details: 1 uM
PIK3CA (E545A) = PIK3CA (E545A) (Homo sapiens (Human), UniProt P42336, E545A); assay: KINOMEscan; format: binding; details: 1 uM
PIM3 = PIM3 (Homo sapiens (Human), UniProt Q86V86); assay: KINOMEscan; format: binding; details: 1 uM
PKN1 = PKN1 (Homo sapiens (Human), UniProt Q16512); assay: KINOMEscan; format: binding; details: 1 uM
PRKCE = PRKCE (Homo sapiens (Human), UniProt Q02156); assay: KINOMEscan; format: binding; details: 1 uM
RET (V804M) = RET (V804M) (Homo sapiens (Human), UniProt P07949, V804M); assay: KINOMEscan; format: binding; details: 1 uM
RIOK2 = RIOK2 (Homo sapiens (Human), UniProt Q9BVS4); assay: KINOMEscan; format: binding; details: 1 uM
ROCK2 = ROCK2 (Homo sapiens (Human), UniProt O75116); assay: KINOMEscan; format: binding; details: 1 uM
ROS1 = ROS1 (Homo sapiens (Human), UniProt P08922); assay: KINOMEscan; format: binding; details: 1 uM
SGK3 = SGK3 (Homo sapiens (Human), UniProt Q96BR1); assay: KINOMEscan; format: binding; details: 1 uM
STK33 = STK33 (Homo sapiens (Human), UniProt Q9BYT3); assay: KINOMEscan; format: binding; details: 1 uM
STK36 = STK36 (Homo sapiens (Human), UniProt Q9NRP7); assay: KINOMEscan; format: binding; details: 1 uM
TIE2 = TIE2 (Homo sapiens (Human), UniProt Q02763); assay: KINOMEscan; format: binding; details: 1 uM
TSSK1B = TSSK1B (Homo sapiens (Human), UniProt Q9BXA7); assay: KINOMEscan; format: binding; details: 1 uM
TYRO3 = TYRO3 (Homo sapiens (Human), UniProt Q06418); assay: KINOMEscan; format: binding; details: 1 uM
ULK3 = ULK3 (Homo sapiens (Human), UniProt Q6PHR2); assay: KINOMEscan; format: binding; details: 1 uM

SIK3, sequence (Q9Y2K2 whole entry): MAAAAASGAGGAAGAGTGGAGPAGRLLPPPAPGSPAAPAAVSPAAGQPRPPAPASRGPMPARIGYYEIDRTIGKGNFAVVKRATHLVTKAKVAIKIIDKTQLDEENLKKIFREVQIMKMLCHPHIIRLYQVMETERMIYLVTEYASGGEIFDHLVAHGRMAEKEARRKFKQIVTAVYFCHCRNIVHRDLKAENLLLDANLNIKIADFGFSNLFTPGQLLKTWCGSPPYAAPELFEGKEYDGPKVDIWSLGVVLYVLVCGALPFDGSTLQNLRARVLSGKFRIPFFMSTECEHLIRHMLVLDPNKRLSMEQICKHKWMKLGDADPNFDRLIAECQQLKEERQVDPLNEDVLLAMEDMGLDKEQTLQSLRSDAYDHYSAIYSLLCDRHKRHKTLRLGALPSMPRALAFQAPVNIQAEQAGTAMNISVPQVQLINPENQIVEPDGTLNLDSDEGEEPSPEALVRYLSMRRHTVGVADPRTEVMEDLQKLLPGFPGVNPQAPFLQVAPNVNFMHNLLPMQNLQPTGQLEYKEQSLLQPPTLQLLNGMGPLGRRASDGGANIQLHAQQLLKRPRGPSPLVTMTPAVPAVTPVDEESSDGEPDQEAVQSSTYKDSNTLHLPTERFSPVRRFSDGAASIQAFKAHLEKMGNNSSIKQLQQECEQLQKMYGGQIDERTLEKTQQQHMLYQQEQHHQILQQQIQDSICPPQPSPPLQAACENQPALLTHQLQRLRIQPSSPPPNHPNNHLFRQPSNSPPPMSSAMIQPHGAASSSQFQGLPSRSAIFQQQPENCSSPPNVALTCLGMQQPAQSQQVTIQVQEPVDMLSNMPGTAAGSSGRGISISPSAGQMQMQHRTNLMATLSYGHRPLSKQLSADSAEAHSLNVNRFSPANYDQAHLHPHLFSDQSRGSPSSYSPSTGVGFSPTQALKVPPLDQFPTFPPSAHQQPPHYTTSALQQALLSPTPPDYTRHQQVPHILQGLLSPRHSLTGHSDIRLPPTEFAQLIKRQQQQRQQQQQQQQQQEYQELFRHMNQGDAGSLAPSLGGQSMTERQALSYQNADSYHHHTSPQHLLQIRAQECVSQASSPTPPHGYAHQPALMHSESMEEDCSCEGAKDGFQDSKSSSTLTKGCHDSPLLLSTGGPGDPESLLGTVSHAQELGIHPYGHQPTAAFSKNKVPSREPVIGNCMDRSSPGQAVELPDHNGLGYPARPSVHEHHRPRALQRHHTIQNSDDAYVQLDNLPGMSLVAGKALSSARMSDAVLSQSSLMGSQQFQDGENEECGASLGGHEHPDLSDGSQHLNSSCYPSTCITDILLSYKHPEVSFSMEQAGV
STK36, sequence (Q9NRP7 whole entry): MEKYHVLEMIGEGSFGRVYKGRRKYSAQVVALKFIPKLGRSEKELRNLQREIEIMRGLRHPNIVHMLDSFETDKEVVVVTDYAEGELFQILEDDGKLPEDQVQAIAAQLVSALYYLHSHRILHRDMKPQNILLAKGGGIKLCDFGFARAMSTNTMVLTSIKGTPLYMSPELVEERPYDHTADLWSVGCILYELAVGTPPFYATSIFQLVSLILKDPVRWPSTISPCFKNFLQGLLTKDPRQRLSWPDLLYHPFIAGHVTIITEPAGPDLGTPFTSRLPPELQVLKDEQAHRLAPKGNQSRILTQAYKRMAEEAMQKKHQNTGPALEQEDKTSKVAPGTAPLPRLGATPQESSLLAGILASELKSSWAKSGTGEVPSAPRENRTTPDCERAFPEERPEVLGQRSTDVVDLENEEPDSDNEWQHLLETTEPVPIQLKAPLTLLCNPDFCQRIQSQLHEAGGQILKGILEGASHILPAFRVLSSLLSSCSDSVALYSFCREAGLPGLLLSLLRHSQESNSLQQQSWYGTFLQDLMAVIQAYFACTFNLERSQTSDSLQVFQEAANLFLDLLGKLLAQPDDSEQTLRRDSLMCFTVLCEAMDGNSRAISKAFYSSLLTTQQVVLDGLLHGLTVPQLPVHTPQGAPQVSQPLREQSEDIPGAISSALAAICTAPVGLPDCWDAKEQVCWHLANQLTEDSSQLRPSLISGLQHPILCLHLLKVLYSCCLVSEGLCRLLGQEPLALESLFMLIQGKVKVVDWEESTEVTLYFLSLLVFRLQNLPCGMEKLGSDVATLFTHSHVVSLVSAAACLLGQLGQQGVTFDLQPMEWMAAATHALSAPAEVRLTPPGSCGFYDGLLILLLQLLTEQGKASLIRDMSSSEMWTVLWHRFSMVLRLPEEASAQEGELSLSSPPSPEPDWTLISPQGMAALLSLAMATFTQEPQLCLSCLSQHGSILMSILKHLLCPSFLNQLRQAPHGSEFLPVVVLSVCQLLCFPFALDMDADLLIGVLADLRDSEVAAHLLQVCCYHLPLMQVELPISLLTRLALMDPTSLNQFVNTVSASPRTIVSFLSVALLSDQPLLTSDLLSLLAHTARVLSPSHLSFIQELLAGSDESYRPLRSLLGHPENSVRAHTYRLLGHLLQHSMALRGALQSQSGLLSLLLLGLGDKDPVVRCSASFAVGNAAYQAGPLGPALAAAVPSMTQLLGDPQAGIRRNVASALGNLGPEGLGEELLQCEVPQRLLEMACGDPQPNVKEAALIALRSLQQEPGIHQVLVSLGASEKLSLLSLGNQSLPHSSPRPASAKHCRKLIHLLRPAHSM
CDK9, sequence (P50750 whole entry): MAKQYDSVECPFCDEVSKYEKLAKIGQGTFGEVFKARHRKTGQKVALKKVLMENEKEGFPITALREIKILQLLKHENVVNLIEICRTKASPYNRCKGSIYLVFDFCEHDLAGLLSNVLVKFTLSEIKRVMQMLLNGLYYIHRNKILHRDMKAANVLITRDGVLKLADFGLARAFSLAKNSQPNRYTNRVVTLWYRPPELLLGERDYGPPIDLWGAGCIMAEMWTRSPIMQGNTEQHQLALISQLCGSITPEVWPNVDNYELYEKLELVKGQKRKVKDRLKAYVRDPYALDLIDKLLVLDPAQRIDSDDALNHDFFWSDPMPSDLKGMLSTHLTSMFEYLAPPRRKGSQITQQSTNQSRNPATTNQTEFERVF
CDK5, sequence (Q00535 whole entry): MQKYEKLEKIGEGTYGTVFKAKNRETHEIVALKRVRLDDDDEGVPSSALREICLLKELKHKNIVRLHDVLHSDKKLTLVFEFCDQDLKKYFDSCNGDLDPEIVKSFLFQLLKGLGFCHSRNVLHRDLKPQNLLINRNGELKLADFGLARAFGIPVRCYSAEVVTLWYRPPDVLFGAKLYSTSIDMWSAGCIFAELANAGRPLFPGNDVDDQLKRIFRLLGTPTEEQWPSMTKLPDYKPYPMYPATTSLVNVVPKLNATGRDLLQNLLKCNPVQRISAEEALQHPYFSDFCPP
BIKE, sequence (Q9NSY1 whole entry): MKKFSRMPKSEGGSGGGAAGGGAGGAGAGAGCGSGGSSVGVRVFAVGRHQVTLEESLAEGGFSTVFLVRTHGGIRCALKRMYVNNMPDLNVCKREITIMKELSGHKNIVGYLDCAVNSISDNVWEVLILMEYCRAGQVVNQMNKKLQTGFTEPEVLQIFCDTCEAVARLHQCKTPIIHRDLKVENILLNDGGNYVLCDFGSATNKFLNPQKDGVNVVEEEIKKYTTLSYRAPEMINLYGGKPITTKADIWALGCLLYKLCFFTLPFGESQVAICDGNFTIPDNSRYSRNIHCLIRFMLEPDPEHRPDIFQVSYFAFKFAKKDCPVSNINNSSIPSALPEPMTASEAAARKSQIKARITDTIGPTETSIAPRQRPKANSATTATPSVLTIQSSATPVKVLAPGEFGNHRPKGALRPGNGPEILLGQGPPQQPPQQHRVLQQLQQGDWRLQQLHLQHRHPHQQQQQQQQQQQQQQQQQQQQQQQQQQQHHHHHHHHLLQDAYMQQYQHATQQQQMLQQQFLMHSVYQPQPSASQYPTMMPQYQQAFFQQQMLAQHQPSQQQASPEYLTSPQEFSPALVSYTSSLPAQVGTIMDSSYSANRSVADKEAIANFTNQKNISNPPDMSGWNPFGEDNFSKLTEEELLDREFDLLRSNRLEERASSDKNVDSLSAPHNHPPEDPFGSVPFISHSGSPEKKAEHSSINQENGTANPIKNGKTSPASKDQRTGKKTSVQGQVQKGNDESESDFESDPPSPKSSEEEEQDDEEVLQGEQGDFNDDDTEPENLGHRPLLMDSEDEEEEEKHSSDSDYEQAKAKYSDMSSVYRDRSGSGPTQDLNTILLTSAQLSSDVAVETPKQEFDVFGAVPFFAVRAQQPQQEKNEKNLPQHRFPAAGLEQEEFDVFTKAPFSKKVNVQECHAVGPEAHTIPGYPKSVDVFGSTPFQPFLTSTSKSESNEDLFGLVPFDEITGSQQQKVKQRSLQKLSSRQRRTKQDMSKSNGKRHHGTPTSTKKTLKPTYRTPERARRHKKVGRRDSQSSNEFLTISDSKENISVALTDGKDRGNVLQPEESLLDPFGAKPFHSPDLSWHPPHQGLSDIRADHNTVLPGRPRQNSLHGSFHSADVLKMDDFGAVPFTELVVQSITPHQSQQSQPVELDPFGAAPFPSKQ
JAK2 (JH1domain-catalytic), sequence (O60674 849-1124): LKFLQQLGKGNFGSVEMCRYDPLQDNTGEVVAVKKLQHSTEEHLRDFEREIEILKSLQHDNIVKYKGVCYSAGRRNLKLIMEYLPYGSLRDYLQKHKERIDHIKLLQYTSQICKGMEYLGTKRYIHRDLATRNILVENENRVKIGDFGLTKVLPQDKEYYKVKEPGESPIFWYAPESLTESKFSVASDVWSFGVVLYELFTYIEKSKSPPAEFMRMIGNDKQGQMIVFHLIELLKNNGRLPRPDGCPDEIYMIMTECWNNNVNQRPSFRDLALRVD

COc1ccc(N2C(=O)N(c3c(C)cccc3C)Cc3cnc(Nc4ccc(N5CCN(C)CC5)cc4)nc32)c(OC)c1 [HG-11-136-01]
Enzyme activity at 1 μM (%) SIK3 (SIK3; 1 μM): 9% | SIK3 % ACTIVITY (SIK3; compound at 1 μM, approximate Km for ATP): 9% | KINOMEscan ABL1 (F317L)-nonphosphorylated [1]: 0 | KINOMEscan AKT1 (AKT1): 100 | KINOMEscan AURKC (AURKC): 33 | KINOMEscan BIKE (BIKE): 8.8 | KINOMEscan BMPR1B (BMPR1B): 0 | KINOMEscan CAMK2D (CAMK2D): 100 | KINOMEscan CDK5 (CDK5): 100 | KINOMEscan CDK9 (CDK9): 91 | KINOMEscan CIT (CIT): 58 | KINOMEscan CSNK2A1 (CSNK2A1): 1.9 | KINOMEscan DCAMKL3 (DCAMKL3): 77 | KINOMEscan EGFR (T790M) (EGFR (T790M)): 0.7 | KINOMEscan EPHA5 (EPHA5): 0.6 | KINOMEscan ERK4 (ERK4): 95 | KINOMEscan FGFR4 (FGFR4): 2 | KINOMEscan HASPIN (HASPIN): 92 | KINOMEscan ICK (ICK): 61 | KINOMEscan JAK2 (JH1domain-catalytic) [2]: 0.75 | KINOMEscan LIMK2 (LIMK2): 0 | KINOMEscan MAP3K15 (MAP3K15): 40 | KINOMEscan MAP3K3 (MAP3K3): 0.1 | KINOMEscan MAP4K3 (MAP4K3): 1.8 | KINOMEscan MAP4K4 (MAP4K4): 17 | KINOMEscan MLK1 (MLK1): 6 | KINOMEscan MYLK2 (MYLK2): 81 | KINOMEscan PIK3CA (E545A) (PIK3CA (E545A)): 69 | KINOMEscan PIM3 (PIM3): 90 | KINOMEscan PKN1 (PKN1): 95 | KINOMEscan PRKCE (PRKCE): 61 | KINOMEscan RET (V804M) (RET (V804M)): 7.6 | KINOMEscan RIOK2 (RIOK2): 87 | KINOMEscan ROCK2 (ROCK2): 89 | KINOMEscan ROS1 (ROS1): 63 | KINOMEscan SGK3 (SGK3): 77 | KINOMEscan STK33 (STK33): 24 | KINOMEscan STK36 (STK36): 0 | KINOMEscan TIE2 (TIE2): 0.75 | KINOMEscan TSSK1B (TSSK1B): 50 | KINOMEscan TYRO3 (TYRO3): 1.6 | KINOMEscan ULK3 (ULK3): 2

Source: patent publication US11725011B2, “Bicyclic urea kinase inhibitors and uses thereof” (The Broad Institute, Inc., priority 2016, dated 2023)
